The target of the assay is T1, SLC5A1 (Homo sapiens, UniProt P13866).
T1 sequence (P13866 1-664): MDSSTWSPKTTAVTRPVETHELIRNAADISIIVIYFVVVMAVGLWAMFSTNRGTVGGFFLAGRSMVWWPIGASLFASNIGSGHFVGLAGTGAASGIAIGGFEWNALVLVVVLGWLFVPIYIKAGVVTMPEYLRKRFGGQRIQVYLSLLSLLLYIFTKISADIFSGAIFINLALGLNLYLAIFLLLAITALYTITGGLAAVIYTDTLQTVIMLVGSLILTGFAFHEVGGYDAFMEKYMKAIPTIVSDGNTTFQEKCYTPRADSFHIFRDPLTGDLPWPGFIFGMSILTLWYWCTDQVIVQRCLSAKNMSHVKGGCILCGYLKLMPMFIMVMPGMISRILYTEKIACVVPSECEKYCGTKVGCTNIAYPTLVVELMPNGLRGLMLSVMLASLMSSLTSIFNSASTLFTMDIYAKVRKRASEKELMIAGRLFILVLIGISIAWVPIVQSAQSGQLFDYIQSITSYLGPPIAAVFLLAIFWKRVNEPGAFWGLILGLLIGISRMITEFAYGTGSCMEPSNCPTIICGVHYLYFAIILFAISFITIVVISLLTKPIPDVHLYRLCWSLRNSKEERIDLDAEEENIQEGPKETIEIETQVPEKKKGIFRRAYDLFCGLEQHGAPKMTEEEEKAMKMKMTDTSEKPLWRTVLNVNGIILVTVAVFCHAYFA
As to the kind of experiment: SPR. Type of assay: binding.

SMILES strings stand for the structures.

`CC(C)=CCC[C@](C)(O[C@@H]1O[C@H](CO)[C@@H](O)[C@H](O)[C@H]1O)[C@H]1CC[C@]2(C)[C@@H]1[C@H](O)C[C@@H]1[C@@]3(C)CC[C@H](O[C@@H]4O[C@H](CO)[C@@H](O)[C@H](O)[C@H]4O[C@@H]4O[C@H](CO)[C@@H](O)[C@H](O)[C@H]4O)C(C)(C)[C@@H]3CC[C@]12C` [ginsenoside Rd]: the Kd (in general, a measure of binding affinity in units of concentration) was 680 nM.

These data come from PMC9459060 (Journal of Ginseng Research, 2022).
